Data on nine compounds can be found in patent US20110046104A1, “AMINOPYRIMIDINES USEFUL AS KINASE INHIBITORS” (VERTEX PHARMACEUTICALS INCORPORATED, priority 2007, published 2011).

The target of the first assay is T1, Aurora-2 (Aurora A) (Homo sapiens, UniProt O14965).
T1 sequence (O14965 1-403): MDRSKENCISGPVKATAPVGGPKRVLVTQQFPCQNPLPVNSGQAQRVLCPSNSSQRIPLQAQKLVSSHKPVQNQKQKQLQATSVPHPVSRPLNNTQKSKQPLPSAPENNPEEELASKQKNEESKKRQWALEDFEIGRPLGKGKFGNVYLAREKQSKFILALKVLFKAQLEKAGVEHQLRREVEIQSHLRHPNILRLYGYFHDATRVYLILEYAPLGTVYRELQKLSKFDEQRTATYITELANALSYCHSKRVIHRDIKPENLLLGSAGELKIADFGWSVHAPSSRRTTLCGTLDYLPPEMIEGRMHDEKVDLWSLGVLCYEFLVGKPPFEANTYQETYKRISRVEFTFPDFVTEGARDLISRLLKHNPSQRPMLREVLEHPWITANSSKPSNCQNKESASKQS
As to the kind of experiment: Aurora-2 (Aurora A) inhibition assay, coupled enzyme assay. Particulars: 400 μM ATP, 570 μM Kemptide, 40 nM Aurora-2, 30° C. In kind it is biochemical. Here is the method:
Compounds were screened for their ability to inhibit Aurora-2 using a standard coupled enzyme assay (Fox et al., Protein Sci., (1998) 7, 2249). Assays were carried out in a mixture of 100 mM Hepes (pH7.5), 10 mM MgCl2, 1 mM DTT, 25 mM NaCl, 2.5 mM phosphoenolpyruvate, 300 μM NADH, 30 μg/ml pyruvate kinase and 10 μg/ml lactate dehydrogenase. Final substrate concentrations in the assay were 400 μM ATP (Sigma Chemicals) and 570 μM peptide (Kemptide, American Peptide, Sunnyvale, Calif.). Assays were carried out at 30° C. and in the presence of 40 nM Aurora-2.
An assay stock buffer solution was prepared containing all of the reagents listed above, with the exception of Aurora-2 and the test compound of interest. 55 μl of the stock solution was placed in a 96 well plate followed by addition of 2 μl of DMSO stock containing serial dilutions of the test compound (typically starting from a final concentration of 7.5 μM). The plate was preincubated for 10 minutes at 30° C. and the reaction initiated by addition of 10 μl of Aurora-2. Initial reaction rates were determined with a Molecular Devices SpectraMax Plus plate reader over a 10 minute time course. IC50 and Ki data were calculated from non-linear regression analysis using the Prism software package (GraphPad Prism version 3.0cx for Macintosh, GraphPad Software, San Diego Calif., USA).
Compound `O=C(CC(F)(F)F)Nc1ccc(Sc2nc(Nc3ncns3)cc(N3CC(F)(C4CC4)C3)n2)cc1` [Compound I-1, N-(4-(4-(1,2,4-thiadiazol-5-ylamino)-6-(3-cyclopropyl-3-fluoroazetidin-1-yl)pyrimidin-2-ylthio)phenyl)-3,3,3-trifluoropropanamide] had an inhibitory constant (Ki) of 33 nM.

The target of another assay is Aurora-1 (Aurora B) (Homo sapiens, UniProt Q96GD4). As to the kind of experiment: Aurora-1 (Aurora B) inhibition assay (radiometric). In kind it is biochemical. The conditions noted are these: 800 μM [γ-33P]-ATP, Kemptide, 25° C., 3 hours. Here is the method: An assay buffer solution was prepared which consisted of 25 mM HEPES (pH 7.5), 10 mM MgCl2, 0.1% BSA and 10% glycerol. A 22 nM Aurora-B solution, also containing 1.7 mM DTT and 1.5 mM Kemptide (LRRASLG), was prepared in assay buffer. To 22 μL of the Aurora-B solution, in a 96-well plate, was added 2 μl of a compound stock solution in DMSO and the mixture allowed to equilibrate for 10 minutes at 25° C. The enzyme reaction was initiated by the addition of 16 μl stock [γ-^33P]-ATP solution (˜20 nCi/μL) prepared in assay buffer, to a final assay concentration of 800 μM. The reaction was stopped after 3 hours by the addition of 16 μL 500 mM phosphoric acid and the levels of ^33P incorporation into the peptide substrate were determined by the following method.
Chain of Aurora-1 (Aurora B) (Q96GD4 whole entry): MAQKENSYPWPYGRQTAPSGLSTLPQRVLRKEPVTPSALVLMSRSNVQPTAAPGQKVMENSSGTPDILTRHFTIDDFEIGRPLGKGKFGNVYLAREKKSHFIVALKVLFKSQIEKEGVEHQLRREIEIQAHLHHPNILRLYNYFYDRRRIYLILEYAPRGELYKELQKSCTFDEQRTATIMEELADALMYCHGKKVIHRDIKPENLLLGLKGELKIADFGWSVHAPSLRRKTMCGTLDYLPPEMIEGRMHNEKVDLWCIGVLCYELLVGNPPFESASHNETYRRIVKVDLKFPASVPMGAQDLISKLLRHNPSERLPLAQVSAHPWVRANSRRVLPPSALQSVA
A phosphocellulose 96-well plate (Millipore, Cat no. MAPHNOB50) was pre-treated with 100 μL of a 100 mM phosphoric acid prior to the addition of the enzyme reaction mixture (40 μL). The solution was left to soak on to the phosphocellulose membrane for 30 minutes and the plate subsequently washed four times with 200 μL of a 100 mM phosphoric acid. To each well of the dry plate was added 30 μL of Optiphase ‘SuperMix’ liquid scintillation cocktail (Perkin Elmer) prior to scintillation counting (1450 Microbeta Liquid Scintillation Counter, Wallac). Levels of non-enzyme catalyzed background radioactivity were determined by adding 16 μL of the 500 mM phosphoric acid to control wells, containing all assay components (which acts to denature the enzyme), prior to the addition of the [γ-^33P]-ATP solution. Levels of enzyme catalyzed ^33P incorporation were calculated by subtracting mean background counts from those measured at each inhibitor concentration. For each Ki determination 8 data points, typically covering the concentration range 0-10 μM compound, were obtained in duplicate (DMSO stocks were prepared from an initial compound stock of 10 mM with subsequent 1:2.5 serial dilutions). Ki values were calculated from initial rate data by non-linear regression using the Prism software package (Prism 3.0, Graphpad Software, San Diego, Calif.).
With `O=C(CC(F)(F)F)Nc1ccc(Sc2nc(Nc3ncns3)cc(N3CC(F)(C4CC4)C3)n2)cc1` [Compound I-1, N-(4-(4-(1,2,4-thiadiazol-5-ylamino)-6-(3-cyclopropyl-3-fluoroazetidin-1-yl)pyrimidin-2-ylthio)phenyl)-3,3,3-trifluoropropanamide], the Ki is more than 1500 nM.

In turn, `O=C(Nc1ccc(Sc2nc(Nc3ncns3)cc(N3CCC3)n2)cc1)c1ccccc1Cl` [Compound I-7, N-(4-(4-(1,2,4-Thiadiazol-5-ylamino)-6-(azetidin-1-yl)pyrimidin-2-ylthio)phenyl)-2-chlorobenzamide] came in with a Ki of less than 500 nM.

Consider `O=C(CC(F)(F)F)Nc1ccc(Sc2nc(Nc3ccccn3)cc(N3CC(F)(C4CC4)C3)n2)cc1` [Compound I-3, N-(4-(4-(3-Cyclopropyl-3-fluoroazetidin-1-yl)-6-(pyridin-2-ylamino)pyrimidin-2-ylthio)phenyl)-3,3,3-trifluoropropanamide], for which the Ki was less than 500 nM.

The compound `O=C(NCC(F)(F)F)c1ccc(Sc2nc(Nc3ncns3)cc(N3CC(F)(C4CC4)C3)n2)cc1` [Compound I-8, 4-(4-(1,2,4-Thiadiazol-5-ylamino)-6-(3-cyclopropyl-3-fluoroazetidin-1-yl)pyrimidin-2-ylthio)-N-(2,2,2-trifluoroethyl)benzamide] gave a Ki of more than 1500 nM.

On to `O=C(CC(F)(F)F)Nc1ccc(Sc2nc(Nc3nnc[nH]3)cc(N3CC(F)(C4CC4)C3)n2)cc1` [Compound I-2, N-(4-(4-(4H-1,2,4-Triazol-3-ylamino)-6-(3-cyclopropyl-3-fluoroazetidin-1-yl)pyrimidin-2-ylthio)phenyl)-3,3,3-trifluoropropanamide], for which the inhibitory constant (Ki) was more than 1500 nM.

Compound `O=C(CC(F)(F)F)Nc1ccc(Sc2nc(Nc3ncns3)cc(N3CC[C@H](F)C3)n2)cc1` [Compound I-11, (S)—N-(4-(4-(1,2,4-Thiadiazol-5-ylamino)-6-(3-fluoropyrrolidin-1-yl)pyrimidin-2-ylthio)phenyl)-3,3,3-trifluoropropanamide] showed a Ki of more than 1500 nM.

As to `O=C(CC(F)(F)F)Nc1ccc(Sc2nc(Nc3ccccn3)cc(N3CC[C@H](F)C3)n2)cc1` [Compound I-9, (S)-3,3,3-Trifluoro-N-(4-(4-(3-fluoropyrrolidin-1-yl)-6-(pyridin-2-ylamino)pyrimidin-2-ylthio)phenyl)propanamide], the Ki was more than 1500 nM.

Consider `O=C(CC(F)(F)F)Nc1ccc(Sc2nc(Nc3nnc[nH]3)cc(N3CC[C@H](F)C3)n2)cc1` [Compound I-10, (S)—N-(4-(4-(4H-1,2,4-Triazol-3-ylamino)-6-(3-fluoropyrrolidin-1-yl)pyrimidin-2-ylthio)phenyl)-3,3,3-trifluoropropanamide], for which the Ki was less than 500 nM.

In the case of `O=C(Nc1ccc(Sc2nc(Nc3ncns3)cc(N3CC(F)(C4CC4)C3)n2)cc1)C1CC1` [Compound I-4, N-(4-(4-(1,2,4-Thiadiazol-5-ylamino)-6-(3-cyclopropyl-3-fluoroazetidin-1-yl)pyrimidin-2-ylthio)phenyl)cyclopropanecarboxamide], the Ki was more than 1500 nM.

The Ki is the equilibrium dissociation constant of an inhibitor or competing ligand from its target. A lower Ki goes with tighter binding.
